Test results: patent US8759333B2, “Di-azetidinyl diamide as monoacylglycerol lipase inhibitors” (Janssen Pharmaceutica, NV, priority 2010, dated 2014)

How the values were obtained:
MGL = target: T1, MGL (Rattus norvegicus, UniProt Q8R431); test: 2-AG Accumulation Assay in rat brain homogenate; type: biochemical; details: compound @10 µM, percent of vehicle, read-out: Rat Brain 2AG % VehCntrl (%) @10 µM
T1 construct: one g rat brain was homogenized using a Polytron homogenizer; from tissue; host or cells: rat brain homogenate
T1 sequence (Q8R431 1-303): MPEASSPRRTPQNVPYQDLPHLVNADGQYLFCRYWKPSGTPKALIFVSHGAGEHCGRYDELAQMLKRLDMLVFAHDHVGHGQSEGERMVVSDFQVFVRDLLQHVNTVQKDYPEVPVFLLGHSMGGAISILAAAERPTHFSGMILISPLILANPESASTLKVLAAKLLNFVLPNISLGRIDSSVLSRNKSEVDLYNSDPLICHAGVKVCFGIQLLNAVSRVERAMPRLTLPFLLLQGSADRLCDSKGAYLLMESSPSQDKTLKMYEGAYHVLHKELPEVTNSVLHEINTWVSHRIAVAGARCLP

[1] = target: T2, mutant MGL (mut-MGLL 11-313 L179S L186S) (Homo sapiens, UniProt Q99685, L169S/L176S); test: MGL Enzyme Activity Assay, purified mutant MGL, 4MU-B substrate; type: biochemical; details: mutant MGL 5 nM, 4MU-B 10 μM, 37° C.; read-out: MGL mutant inh IC50
T2 construct: purified mutant MGL (mut-MGLL 11-313 L179S L186S)
T2 sequence (Q99685 1-303 L169S/L176S): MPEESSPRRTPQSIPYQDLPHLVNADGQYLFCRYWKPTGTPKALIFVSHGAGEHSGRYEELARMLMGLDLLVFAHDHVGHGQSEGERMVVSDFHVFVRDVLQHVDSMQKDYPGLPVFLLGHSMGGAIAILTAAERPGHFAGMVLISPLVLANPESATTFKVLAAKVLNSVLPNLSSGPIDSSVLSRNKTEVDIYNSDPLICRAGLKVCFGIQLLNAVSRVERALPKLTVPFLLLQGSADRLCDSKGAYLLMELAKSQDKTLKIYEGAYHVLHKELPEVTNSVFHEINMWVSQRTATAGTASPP
Method: All rate-based assays were performed in black 384-well polypropylene PCR microplates (Abgene) in a total volume of 30 μL. Substrate 4-methylumbelliferyl butyrate (4MU-B; Sigma) and either purified mutant MGL (mut-MGLL 11-313 L179S L186S) or purified wild type MGL (wt-MGLL 6H-11-313) were diluted separately into 20 mM PIPES buffer (pH=7.0), containing 150 mM NaCl and 0.001% Tween 20. Compounds of Formula (I), including Formulas I(a), I(b), and I(c), were pre-dispensed (50 nL) into the assay plate using a Cartesian Hummingbird prior to adding 4MU-B (25 μL of 1.2× solution to a final concentration of 10 μM) followed by enzyme (5 μL of a 6× solution to a final concentration of 5 nM) to initiate the reaction. Final compound concentrations ranged from 17 to 0.0003 μM. The fluorescence change due to 4MU-B cleavage was monitored with excitation and emission wavelengths of 335 and 440 nm, respectively, and a bandwidth of 10 nm (Safire^2, Tecan) at 37° C. for 5 min.
The IC50 values for the following compounds were determined using Microsoft Office Excel from a fit of the equation to the concentration-response plot of the fractional activity as a function of inhibitor concentration.

mutant MGL = target: T3, mutant MGL (Homo sapiens, UniProt Q99685, L169S/L176S); test: MGL ThermoFluor Assay - Mutant; type: binding; details: 0.07 mg/ml mutant MGL, 100 μM ANS, pH 7.0
T3 construct: purified mutant MGL (mut-MGLL 11-313 L179S L186S)
T3 sequence (Q99685 1-303 L169S/L176S): T2 sequence (Q99685 1-303 L169S/L176S)
Method: The ThermoFluor (TF) assay is a 384-well plate-based binding assay that measures thermal stability of proteins^1,2. The experiments were carried out using instruments available from Johnson & Johnson Pharmaceutical Research & Development, LLC. TF dye used in all experiments was 1,8-ANS (Invitrogen: A-47). Final TF assay conditions used for MGL studies were 0.07 mg/ml of mutant MGL, 100 μM ANS, 200 mM NaCl, 0.001% Tween-20 in 50 mM PIPES (pH=7.0).
Screening compound plates contained 100% DMSO compound solutions at a single concentration. […] Columns 12 and 24 were used as DMSO reference and contained no compound. […] Following compound dispension, protein and dye solutions were added to achieve the final assay volume of 3 μL.
Bar-coded assay plates were robotically loaded onto a thermostatically controlled PCR-type thermal block and then heated from 40 to 90° C. degrees at a ramp-rate of 1° C./min for all experiments. Fluorescence was measured by continuous illumination with UV light (Hamamatsu LC6), supplied via fiber optics and filtered through a band-pass filter (380-400 nm; >60D cutoff). Fluorescence emission of the entire 384-well plate was detected by measuring light intensity using a CCD camera (Sensys, Roper Scientific) filtered to detect 500±25 nm, resulting in simultaneous and independent readings of all 384 wells. A single image with 20-sec exposure time was collected at each temperature, and the sum of the pixel intensity in a given area of the assay plate was recorded vs temperature and fit to standard equations to yield the Tm^1. • 1.
The Kd values for certain compounds of Formula (I) were determined from a fit of the equation to the concentration-response plot of the fractional activity as a function of […]. For some experiments, quantitative NMR spectroscopy (qNMR) was used to measure concentration of the initial 100% DMSO compound solutions and, using the same fitting method, qKd values were determined.

Compound | activity at 10 µM (MGL) [%] | IC50 [1] [µM] | Kd (mutant MGL) [µM]
O=C(NC1CN(C2CN(C(=O)c3ccc4c(Br)cccc4c3)C2)C1)c1nccs1 [Cpd 19, N-{1′-[(5-Bromonaphthalen-2-yl)carbonyl]-1,3′-biazetidin-3-yl}-1,3-thiazole-2-carboxamide] | 418 | 0.063 | –
O=C(NC1CN(C2CN(C(=O)c3ccc(Cc4cccc(C(F)(F)F)c4)cc3)C2)C1)c1nccs1 [Cpd 20, N-[1′-({4-[3-(Trifluoromethyl)benzyl]phenyl}carbonyl)-1,3′-biazetidin-3-yl]-1,3-thiazole-2-carboxamide] | 977 | 0.065 | –
O=C(NC1CN(C2CN(C(=O)c3ccc4cc(-c5ccccc5)ccc4c3)C2)C1)c1nccs1 [Cpd 21, N-{1′-[(6-Phenylnaphthalen-2-yl)carbonyl]-1,3′-biazetidin-3-yl}-1,3-thiazole-2-carboxamide] | 581 | 0.069 | –
O=C(NC1CN(C2CN(C(=O)c3ccc(Cc4ccccc4)cc3)C2)C1)c1ccccc1 [Cpd 31, N-{1′-[(4-Benzylphenyl)carbonyl]-1,3′-biazetidin-3-yl}benzamide] | – | 0.27 | 0.154
O=C(NC1CN(C2CN(C(=O)c3ccc(-c4ccccc4)cc3)C2)C1)c1ccccc1 [Cpd 39, N-[1′-(Biphenyl-4-ylcarbonyl)-1,3′-biazetidin-3-yl]benzamide] | – | 0.604 | 0.222
O=C(NC1CN(C2CN(C(=O)c3ccc4nc(-c5ccccc5)oc4c3)C2)C1)c1ccccc1 [Cpd 41, N-{1′-[(2-Phenyl-1,3-benzoxazol-6-yl)carbonyl]-1,3′-biazetidin-3-yl}benzamide] | – | 0.939 | –
O=C(NC1CN(C2CN(C(=O)c3ccc4cc(Br)ccc4c3)C2)C1)c1ccccc1 [Cpd 42, N-{1′-[(6-Bromonaphthalen-2-yl)carbonyl]-1,3′-biazetidin-3-yl}benzamide] | – | 0.997 | –
O=C(NC1CN(C2CN(C(=O)c3ccc(Oc4ccccc4)cc3)C2)C1)c1ccccc1 [Cpd 45, N-{1′-[(4-Phenoxyphenyl)carbonyl]-1,3′-biazetidin-3-yl}benzamide] | – | 2.77 | 0.833
O=C(NC1CN(C2CN(C(=O)c3ccc4nc(Br)sc4c3)C2)C1)c1cscn1 [Cpd 46, N-{1′-[(2-Bromo-1,3-benzothiazol-6-yl)carbonyl]-1,3′-biazetidin-3-yl}-1,3-thiazole-4-carboxamide] | – | 3.75 | 3.4
O=C(c1ccc(-c2cc3ccccc3s2)cc1)N1CC(N2CC(N3Cc4ccccc4C3=O)C2)C1 [Cpd 95, 2-(1′-{[4-(1-Benzothiophen-2-yl)phenyl]carbonyl}-1,3′-biazetidin-3-yl)-2,3-dihydro-1H-isoindol-1-one] | – | 0.75 | –
O=C(c1ccc(Br)cc1)N1CC(N2CC(N3Cc4ccccc4C3=O)C2)C1 [Cpd 96, 2-{1′-[(4-Bromophenyl)carbonyl]-1,3′-biazetidin-3-yl}-2,3-dihydro-1H-isoindol-1-one] | – | 4.67 | –

Continued, values first:

activity at 10 µM (MGL) [%] | IC50 [1] [µM] | Kd (mutant MGL) [µM] | Compound
611 | 0.028 | – | Cc1c(C(=O)N2CC(N3CC(NC(=O)c4nccs4)C3)C2)sc2ccc(Cl)cc12 [Cpd 15, N-{1′-[(5-Chloro-3-methyl-1-benzothiophen-2-yl)carbonyl]-1,3′-biazetidin-3-yl}-1,3-thiazole-2-carboxamide]
343 | 0.093 | – | O=C(NC1CN(C2CN(C(=O)c3cc4ccc(Br)cc4s3)C2)C1)c1nccs1 [Cpd 23, N-{1′-[(6-Bromo-1-benzothiophen-2-yl)carbonyl]-1,3′-biazetidin-3-yl}-1,3-thiazole-2-carboxamide]
73 | 0.099 | – | O=C(NC1CN(C2CN(C(=O)c3ccc4c(Br)cccc4c3)C2)C1)c1ccccc1 [Cpd 24, N-{1′-[(5-Bromonaphthalen-2-yl)carbonyl]-1,3′-biazetidin-3-yl}benzamide]
– | 0.167 | 0.446 | O=C(NC1CN(C2CN(C(=O)c3ccc4ccn(-c5ccccc5)c4c3)C2)C1)c1nccs1 [Cpd 27, N-{1′-[(1-Phenyl-1H-indol-6-yl)carbonyl]-1,3′-biazetidin-3-yl}-1,3-thiazole-2-carboxamide]
– | 1.68 | 3.33 | O=C(NC1CN(C2CN(C(=O)c3ccc(Br)cc3)C2)C1)c1nccs1 [Cpd 43, N-{1′-[(4-Bromophenyl)carbonyl]-1,3′-biazetidin-3-yl}-1,3-thiazole-2-carboxamide]
– | 1.83 | – | O=C(NC1CN(C2CN(C(=O)c3cc4cc(C(F)(F)F)ccc4s3)C2)C1)c1ccccc1 [Cpd 44, N-(1′-{[5-(Trifluoromethyl)-1-benzothiophen-2-yl]carbonyl}-1,3′-biazetidin-3-yl)benzamide]
722 | < 0.005 | – | O=C(NC1CN(C2CN(C(=O)c3ccc4c(-c5ccccc5)cccc4c3)C2)C1)c1nccs1 [Cpd 53, N-{1′-[(5-Phenylnaphthalen-2-yl)carbonyl]-1,3′-biazetidin-3-yl}-1,3-thiazole-2-carboxamide]
416 | 0.023 | – | O=C(c1ccc2c(Br)cccc2c1)N1CC(N2CC(N3Cc4ccccc4C3=O)C2)C1 [Cpd 83, 2-{1′-[(5-Bromonaphthalen-2-yl)carbonyl]-1,3′-biazetidin-3-yl}-2,3-dihydro-1H-isoindol-1-one]
447 | 0.05 | – | O=C(c1ccc(Cc2cccc(C(F)(F)F)c2)cc1)N1CC(N2CC(N3Cc4ccccc4C3=O)C2)C1 [Cpd 86, 2-[1′-({4-[3-(Trifluoromethyl)benzyl]phenyl}carbonyl)-1,3′-biazetidin-3-yl]-2,3-dihydro-1H-isoindol-1-one]
294 | 0.096 | – | O=C(c1ccc2nc(-c3ccc(Cl)cc3)oc2c1)N1CC(N2CC(N3Cc4ccccc4C3=O)C2)C1 [Cpd 88, 2-(1′-{[2-(4-Chlorophenyl)-1,3-benzoxazol-6-yl]carbonyl}-1,3′-biazetidin-3-yl)-2,3-dihydro-1H-isoindol-1-one]
663 | 0.098 | – | O=C(c1ccc2c(ccn2-c2ccccc2C(F)(F)F)c1)N1CC(N2CC(N3Cc4ccccc4C3=O)C2)C1 [Cpd 89, 2-[1′-({1-[2-(Trifluoromethyl)phenyl]-1H-indol-5-yl}carbonyl)-1,3′-biazetidin-3-yl]-2,3-dihydro-1H-isoindol-1-one]
– | 0.154 | – | O=C(c1ccc2cc(Br)ccc2c1)N1CC(N2CC(N3Cc4ccccc4C3=O)C2)C1 [Cpd 90, 2-{1′-[(6-Bromonaphthalen-2-yl)carbonyl]-1,3′-biazetidin-3-yl}-2,3-dihydro-1H-isoindol-1-one]
– | 0.236 | – | O=C(c1ccc(N2CCCCC2)cc1)N1CC(N2CC(N3Cc4ccccc4C3=O)C2)C1 [Cpd 91, 2-{1′-[(4-Piperidin-1-ylphenyl)carbonyl]-1,3′-biazetidin-3-yl}-2,3-dihydro-1H-isoindol-1-one]
